Values joined by “and” are separate entries in the source; they are usually repeats but may differ in a detail not shown here. Identical values can stand only once. Toxic doses and inconclusive results are not listed.
Test system: CD2F1 mice, L1210 leukemia sc, survival T/C
Test: NCI In Vivo Anticancer Drug Screen. Data for tumor model L1210 Leukemia (subcutaneous) in CD2F1 (CDF1) mice
Details: endpoint: median survival time, higher = longer survival
Method in brief: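 Read-out: survival or tumor size. Value = treated (T) / vehicle control (C). Transplantable tumor in mice.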

`Nc1nc(=S)c2[nH]cnc2[nH]1` was tested, and the T/C (dose: 2.16 mg/kg/injection, schedule: Q01DX Z (sc), vehicle: other) was 177 % of control, the T/C (dose: 3.6 mg/kg/injection, schedule: Q01DX Z (sc), vehicle: other) was 177 % of control and the T/C (dose: 6.0 mg/kg/injection, schedule: Q01DX Z (sc), vehicle: other) was 177 % of control. The T/C (dose: 10.1 mg/kg/injection, schedule: Q01DX Z (sc), vehicle: other) was 166 % of control and the T/C (dose: 16.9 mg/kg/injection, schedule: Q01DX Z (sc), vehicle: other) was 161 % of control.
`CC[C@H](c1ccc(O)cc1)[C@@H](CC)c1ccc(O)cc1` was tested, and the T/C (dose: 130.0 mg/kg/injection, schedule: Q01DX Z (sc), vehicle: methylcellulose (MC)) was 111 % of control.
`O=P1(N(CCCl)CCCl)NCCCO1` (stereo unspecified) was tested, and the T/C (dose: 6.25 mg/kg/injection, schedule: Q01DX009 (ip), vehicle: saline) was 103 % of control, the T/C (dose: 6.25 mg/kg/injection, schedule: Q01DX009 (sc), vehicle: saline) was 107 % of control and the T/C (dose: 12.5 mg/kg/injection, schedule: Q01DX009 (ip), vehicle: saline) was 106 % of control and 107 % of control. The T/C (dose: 12.5 mg/kg/injection, schedule: Q01DX009 (sc), vehicle: saline) was 110 % of control, the T/C (dose: 23.0 mg/kg/injection, schedule: Q01DX Z (sc), vehicle: saline) was 210 % of control and the T/C (dose: 25.0 mg/kg/injection, schedule: Q01DX009 (ip), vehicle: saline) was 151 % of control. For the same compound, the T/C (dose: 39.0 mg/kg/injection, schedule: Q01DX Z (sc), vehicle: saline) was 221 % of control, the T/C (dose: 39.0 mg/kg/injection, schedule: Q08DX003 (ip), vehicle: none) was 118 % of control and the T/C (dose: 39.0 mg/kg/injection, schedule: Q08DX003 (sc), vehicle: saline) was 116 % of control. The T/C (dose: 50.0 mg/kg/injection, schedule: Q01DX009 (ip), vehicle: saline) was 165 % of control and 173 % of control and 177 % of control, the T/C (dose: 50.0 mg/kg/injection, schedule: Q01DX009 (sc), vehicle: saline) was 191 % of control and the T/C (dose: 65.0 mg/kg/injection, schedule: Q01DX Z (sc), vehicle: saline) was 236 % of control. For the same compound, the T/C (dose: 65.0 mg/kg/injection, schedule: Q07DX003 (ip), vehicle: saline) was 123 % of control, the T/C (dose: 65.0 mg/kg/injection, schedule: Q08DX003 (ip), vehicle: none) was 188 % of control and the T/C (dose: 65.0 mg/kg/injection, schedule: Q08DX003 (sc), vehicle: saline) was 172 % of control. The T/C (dose: 65.0 mg/kg/injection, schedule: Q## X Z (sc), vehicle: saline) was 215 % of control, the T/C (dose: 100.0 mg/kg/injection, schedule: Q01DX009 (ip), vehicle: saline) was 222 % of control and 247 % of control and 89 % of control and the T/C (dose: 100.0 mg/kg/injection, schedule: Q01DX009 (sc), vehicle: saline) was 259 % of control. The T/C (dose: 108.0 mg/kg/injection, schedule: Q01DX001 (sc), vehicle: saline) was 164 % of control and 166 % of control and 168 % of control, the T/C (dose: 108.0 mg/kg/injection, schedule: Q01DX Z (sc), vehicle: saline) was 189 % of control and the T/C (dose: 108.0 mg/kg/injection, schedule: Q07DX003 (ip), vehicle: saline) was 183 % of control. For the same compound, the T/C (dose: 108.0 mg/kg/injection, schedule: Q07DX003 (sc), vehicle: saline) was 211 % of control and 217 % of control, the T/C (dose: 108.0 mg/kg/injection, schedule: Q07DX Z (sc), vehicle: saline) was 226 % of control and the T/C (dose: 108.0 mg/kg/injection, schedule: Q08DX003 (ip), vehicle: none) was 241 % of control. The T/C (dose: 108.0 mg/kg/injection, schedule: Q08DX003 (sc), vehicle: saline) was 227 % of control, the T/C (dose: 108.0 mg/kg/injection, schedule: Q## X Z (sc), vehicle: saline) was 231 % of control and the T/C (dose: 180.0 mg/kg/injection, schedule: Q01DX001 (sc), vehicle: saline) was 197 % of control and 200 % of control (2×). The T/C (dose: 180.0 mg/kg/injection, schedule: Q01DX Z (sc), vehicle: saline) was 152 % of control, the T/C (dose: 180.0 mg/kg/injection, schedule: Q07DX003 (ip), vehicle: saline) was 274 % of control and the T/C (dose: 180.0 mg/kg/injection, schedule: Q07DX003 (sc), vehicle: saline) was 355 % of control and 373 % of control. The T/C (dose: 180.0 mg/kg/injection, schedule: Q07DX Z (sc), vehicle: saline) was 284 % of control, the T/C (dose: 180.0 mg/kg/injection, schedule: Q08DX003 (ip), vehicle: none) was 288 % of control and the T/C (dose: 180.0 mg/kg/injection, schedule: Q08DX003 (sc), vehicle: saline) was 283 % of control. The T/C (dose: 180.0 mg/kg/injection, schedule: Q## X Z (sc), vehicle: saline) was 263 % of control, the T/C (dose: 300.0 mg/kg/injection, schedule: Q01DX001 (sc), vehicle: saline) was 242 % of control and 244 % of control and 252 % of control and the T/C (dose: 300.0 mg/kg/injection, schedule: Q07DX003 (ip), vehicle: saline) was 274 % of control. For the same compound, the T/C (dose: 300.0 mg/kg/injection, schedule: Q07DX003 (sc), vehicle: saline) was 283 % of control and 296 % of control, the T/C (dose: 300.0 mg/kg/injection, schedule: Q07DX Z (sc), vehicle: saline) was 231 % of control and the T/C (dose: 300.0 mg/kg/injection, schedule: Q08DX003 (ip), vehicle: none) was 222 % of control. For the same compound, the T/C (dose: 300.0 mg/kg/injection, schedule: Q08DX003 (sc), vehicle: saline) was 205 % of control, the T/C (dose: 500.0 mg/kg/injection, schedule: Q01DX001 (sc), vehicle: saline) was 120 % of control and 221 % of control and the T/C (dose: 500.0 mg/kg/injection, schedule: Q## X Z (sc), vehicle: saline) was 152 % of control. The T/C (dose: 833.0 mg/kg/injection, schedule: Q01DX001 (sc), vehicle: saline) was 210 % of control and the T/C (dose: 833.0 mg/kg/injection, schedule: Q07DX Z (sc), vehicle: saline) was 157 % of control.
With `Nc1n[nH]c(N)n1` the T/C (dose: 259.0 mg/kg/injection, schedule: Q01DX Z (sc), vehicle: water) was 100 % of control, the T/C (dose: 432.0 mg/kg/injection, schedule: Q01DX Z (sc), vehicle: water) was 113 % of control and the T/C (dose: 720.0 mg/kg/injection, schedule: Q01DX Z (sc), vehicle: water) was 118 % of control. The T/C (dose: 1200.0 mg/kg/injection, schedule: Q01DX Z (sc), vehicle: water) was 122 % of control.
In the case of `O=C(CSc1ncnc2nc[nH]c12)c1ccccc1`, the T/C (dose: 38.9 mg/kg/injection, schedule: Q01DX Z (sc), vehicle: methylcellulose (MC)) is reported as 95 % of control, the T/C (dose: 64.8 mg/kg/injection, schedule: Q01DX Z (sc), vehicle: methylcellulose (MC)) is reported as 95 % of control and the T/C (dose: 108.0 mg/kg/injection, schedule: Q01DX Z (sc), vehicle: methylcellulose (MC)) is reported as 100 % of control. For the same compound, the T/C (dose: 180.0 mg/kg/injection, schedule: Q01DX Z (sc), vehicle: methylcellulose (MC)) was 100 % of control, the T/C (dose: 300.0 mg/kg/injection, schedule: Q01DX Z (sc), vehicle: methylcellulose (MC)) was 100 % of control and the T/C (dose: 500.0 mg/kg/injection, schedule: Q01DX Z (sc), vehicle: methylcellulose (MC)) was 100 % of control.
For `Oc1ccc(F)c2cccnc12`, the T/C (dose: 39.0 mg/kg/injection, schedule: Q01DX Z (sc), vehicle: other) was 100 % of control, the T/C (dose: 65.0 mg/kg/injection, schedule: Q01DX Z (sc), vehicle: other) was 100 % of control and the T/C (dose: 108.0 mg/kg/injection, schedule: Q01DX Z (sc), vehicle: other) was 100 % of control. The T/C (dose: 180.0 mg/kg/injection, schedule: Q01DX Z (sc), vehicle: other) was 100 % of control.
For `O=C[C@@H](CO)O[C@H](C=O)c1c[nH]c(=O)[nH]c1=O`, the T/C (dose: 54.0 mg/kg/injection, schedule: Q04DX003 (ip), vehicle: saline) was 106 % of control and the T/C (dose: 90.0 mg/kg/injection, schedule: Q04DX003 (ip), vehicle: saline) was 123 % of control.

From PubChem BioAssay AID258 (DTP/NCI, 2004)
